Test results reported in PubChem BioAssay (NCI).
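Dose response: 5 concentrations. Exposure: 48 h. Format: 96-well plates. Endpoint: linear interpolation; highest concentration if not reached. At the TGI there is no net growth.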

Tested on: SK-OV-3 ovarian
Experiment: DTP human tumour cell line panel, 48 h

Row | Compound | TGI
1 | Nc1nc(Cl)c(N)c(NCC2(CO)CC(CCCc3ccccc3)C2)n1 (stereo unspecified) | > 100 µM
2 | COc1nc(N)c(N=CC(OC(C)=O)C(OC(C)=O)C(COC(C)=O)OC(C)=O)c(=O)n1C (stereo unspecified) | > 100 µM
3 | C#CCOCC12C=CC(O1)C1C(=O)OCC12 (stereo unspecified) | > 100 µM
4 | Cc1nc(-c2ccc(N=Cc3ccc(N(CCOS(C)(=O)=O)CCOS(C)(=O)=O)cc3C)cc2)cs1 | > 100 µM
5 | Cc1ccc2c(=O)cc(-c3ccc(-c4ccccc4)s3)[nH]c2n1 | > 100 µM
6 | OC1(c2ccccc2)CSC2=Nc3ccccc3C3CCN1N23 (stereo unspecified) | > 100 µM

Tested on: A549 NSCLC
Experiment: DTP human tumour cell line panel, 48 h

Row | Compound | TGI
7 | Nc1nc(Cl)c(N)c(NCC2(CO)CC(CCCc3ccccc3)C2)n1 (stereo unspecified) | > 100 µM
8 | COc1nc(N)c(N=CC(OC(C)=O)C(OC(C)=O)C(COC(C)=O)OC(C)=O)c(=O)n1C (stereo unspecified) | > 100 µM
9 | C#CCOCC12C=CC(O1)C1C(=O)OCC12 (stereo unspecified) | > 100 µM
10 | Cc1nc(-c2ccc(N=Cc3ccc(N(CCOS(C)(=O)=O)CCOS(C)(=O)=O)cc3C)cc2)cs1 | > 100 µM
11 | Cc1ccc2c(=O)cc(-c3ccc(-c4ccccc4)s3)[nH]c2n1 | > 100 µM
12 | OC1(c2ccccc2)CSC2=Nc3ccccc3C3CCN1N23 (stereo unspecified) | 74.3 µM

Tested on: K-562 leukemia
Experiment: DTP human tumour cell line panel, 48 h

Row | Compound | TGI
13 | Nc1nc(Cl)c(N)c(NCC2(CO)CC(CCCc3ccccc3)C2)n1 (stereo unspecified) | > 100 µM
14 | COc1nc(N)c(N=CC(OC(C)=O)C(OC(C)=O)C(COC(C)=O)OC(C)=O)c(=O)n1C (stereo unspecified) | > 100 µM
15 | C#CCOCC12C=CC(O1)C1C(=O)OCC12 (stereo unspecified) | > 100 µM
16 | Cc1nc(-c2ccc(N=Cc3ccc(N(CCOS(C)(=O)=O)CCOS(C)(=O)=O)cc3C)cc2)cs1 | > 100 µM
17 | Cc1ccc2c(=O)cc(-c3ccc(-c4ccccc4)s3)[nH]c2n1 | > 100 µM
18 | OC1(c2ccccc2)CSC2=Nc3ccccc3C3CCN1N23 (stereo unspecified) | > 100 µM

Tested on: T-47D breast
Experiment: DTP human tumour cell line panel, 48 h

Row | Compound | TGI
19 | Nc1nc(Cl)c(N)c(NCC2(CO)CC(CCCc3ccccc3)C2)n1 (stereo unspecified) | > 100 µM
20 | COc1nc(N)c(N=CC(OC(C)=O)C(OC(C)=O)C(COC(C)=O)OC(C)=O)c(=O)n1C (stereo unspecified) | > 100 µM
21 | C#CCOCC12C=CC(O1)C1C(=O)OCC12 (stereo unspecified) | > 100 µM
22 | Cc1nc(-c2ccc(N=Cc3ccc(N(CCOS(C)(=O)=O)CCOS(C)(=O)=O)cc3C)cc2)cs1 | 90.2 µM
23 | Cc1ccc2c(=O)cc(-c3ccc(-c4ccccc4)s3)[nH]c2n1 | > 100 µM
24 | OC1(c2ccccc2)CSC2=Nc3ccccc3C3CCN1N23 (stereo unspecified) | 47.5 µM

Tested on: TK-10 renal
Experiment: DTP human tumour cell line panel, 48 h

Row | Compound | TGI
25 | Nc1nc(Cl)c(N)c(NCC2(CO)CC(CCCc3ccccc3)C2)n1 (stereo unspecified) | > 100 µM
26 | COc1nc(N)c(N=CC(OC(C)=O)C(OC(C)=O)C(COC(C)=O)OC(C)=O)c(=O)n1C (stereo unspecified) | > 100 µM
27 | C#CCOCC12C=CC(O1)C1C(=O)OCC12 (stereo unspecified) | > 100 µM
28 | Cc1nc(-c2ccc(N=Cc3ccc(N(CCOS(C)(=O)=O)CCOS(C)(=O)=O)cc3C)cc2)cs1 | > 100 µM
29 | Cc1ccc2c(=O)cc(-c3ccc(-c4ccccc4)s3)[nH]c2n1 | > 91.4 µM
30 | OC1(c2ccccc2)CSC2=Nc3ccccc3C3CCN1N23 (stereo unspecified) | 43.2 µM

Tested on: KM12 colon
Experiment: DTP human tumour cell line panel, 48 h

Row | Compound | TGI
31 | Nc1nc(Cl)c(N)c(NCC2(CO)CC(CCCc3ccccc3)C2)n1 (stereo unspecified) | > 100 µM
32 | COc1nc(N)c(N=CC(OC(C)=O)C(OC(C)=O)C(COC(C)=O)OC(C)=O)c(=O)n1C (stereo unspecified) | > 100 µM
33 | C#CCOCC12C=CC(O1)C1C(=O)OCC12 (stereo unspecified) | > 100 µM
34 | Cc1nc(-c2ccc(N=Cc3ccc(N(CCOS(C)(=O)=O)CCOS(C)(=O)=O)cc3C)cc2)cs1 | > 100 µM
35 | Cc1ccc2c(=O)cc(-c3ccc(-c4ccccc4)s3)[nH]c2n1 | > 100 µM
36 | OC1(c2ccccc2)CSC2=Nc3ccccc3C3CCN1N23 (stereo unspecified) | 42 µM

Tested on: NCI-H23 lung
Experiment: DTP human tumour cell line panel, 48 h

Row | Compound | TGI
37 | Nc1nc(Cl)c(N)c(NCC2(CO)CC(CCCc3ccccc3)C2)n1 (stereo unspecified) | > 84.4 µM
38 | COc1nc(N)c(N=CC(OC(C)=O)C(OC(C)=O)C(COC(C)=O)OC(C)=O)c(=O)n1C (stereo unspecified) | > 100 µM
39 | C#CCOCC12C=CC(O1)C1C(=O)OCC12 (stereo unspecified) | > 100 µM
40 | Cc1nc(-c2ccc(N=Cc3ccc(N(CCOS(C)(=O)=O)CCOS(C)(=O)=O)cc3C)cc2)cs1 | > 100 µM
41 | Cc1ccc2c(=O)cc(-c3ccc(-c4ccccc4)s3)[nH]c2n1 | > 100 µM
42 | OC1(c2ccccc2)CSC2=Nc3ccccc3C3CCN1N23 (stereo unspecified) | 79.2 µM

Tested on: SF-268 CNS
Experiment: DTP human tumour cell line panel, 48 h

Row | Compound | TGI
43 | Nc1nc(Cl)c(N)c(NCC2(CO)CC(CCCc3ccccc3)C2)n1 (stereo unspecified) | > 55.3 µM
44 | COc1nc(N)c(N=CC(OC(C)=O)C(OC(C)=O)C(COC(C)=O)OC(C)=O)c(=O)n1C (stereo unspecified) | > 100 µM
45 | C#CCOCC12C=CC(O1)C1C(=O)OCC12 (stereo unspecified) | > 100 µM
46 | Cc1nc(-c2ccc(N=Cc3ccc(N(CCOS(C)(=O)=O)CCOS(C)(=O)=O)cc3C)cc2)cs1 | 40.2 µM
47 | Cc1ccc2c(=O)cc(-c3ccc(-c4ccccc4)s3)[nH]c2n1 | > 100 µM
48 | OC1(c2ccccc2)CSC2=Nc3ccccc3C3CCN1N23 (stereo unspecified) | 58.5 µM

Tested on: MDA-MB-231 breast
Experiment: DTP human tumour cell line panel, 48 h

Row | Compound | TGI
49 | Nc1nc(Cl)c(N)c(NCC2(CO)CC(CCCc3ccccc3)C2)n1 (stereo unspecified) | 99.7 µM
50 | COc1nc(N)c(N=CC(OC(C)=O)C(OC(C)=O)C(COC(C)=O)OC(C)=O)c(=O)n1C (stereo unspecified) | > 100 µM
51 | C#CCOCC12C=CC(O1)C1C(=O)OCC12 (stereo unspecified) | > 100 µM
52 | Cc1nc(-c2ccc(N=Cc3ccc(N(CCOS(C)(=O)=O)CCOS(C)(=O)=O)cc3C)cc2)cs1 | > 100 µM
53 | Cc1ccc2c(=O)cc(-c3ccc(-c4ccccc4)s3)[nH]c2n1 | > 100 µM
54 | OC1(c2ccccc2)CSC2=Nc3ccccc3C3CCN1N23 (stereo unspecified) | 31.9 µM

Tested on: HCC-2998 colon
Experiment: DTP human tumour cell line panel, 48 h

Row | Compound | TGI
55 | Nc1nc(Cl)c(N)c(NCC2(CO)CC(CCCc3ccccc3)C2)n1 (stereo unspecified) | > 100 µM
56 | COc1nc(N)c(N=CC(OC(C)=O)C(OC(C)=O)C(COC(C)=O)OC(C)=O)c(=O)n1C (stereo unspecified) | > 100 µM
57 | C#CCOCC12C=CC(O1)C1C(=O)OCC12 (stereo unspecified) | > 100 µM
58 | Cc1nc(-c2ccc(N=Cc3ccc(N(CCOS(C)(=O)=O)CCOS(C)(=O)=O)cc3C)cc2)cs1 | > 100 µM
59 | OC1(c2ccccc2)CSC2=Nc3ccccc3C3CCN1N23 (stereo unspecified) | 88.7 µM

Tested on: CAKI-1 renal
Experiment: DTP human tumour cell line panel, 48 h

Row | Compound | TGI
60 | Nc1nc(Cl)c(N)c(NCC2(CO)CC(CCCc3ccccc3)C2)n1 (stereo unspecified) | > 100 µM
61 | COc1nc(N)c(N=CC(OC(C)=O)C(OC(C)=O)C(COC(C)=O)OC(C)=O)c(=O)n1C (stereo unspecified) | > 100 µM
62 | C#CCOCC12C=CC(O1)C1C(=O)OCC12 (stereo unspecified) | > 100 µM
63 | Cc1ccc2c(=O)cc(-c3ccc(-c4ccccc4)s3)[nH]c2n1 | > 100 µM
64 | OC1(c2ccccc2)CSC2=Nc3ccccc3C3CCN1N23 (stereo unspecified) | 72.6 µM

Tested on: OVCAR-5 ovarian
Experiment: DTP human tumour cell line panel, 48 h

Row | Compound | TGI
65 | Nc1nc(Cl)c(N)c(NCC2(CO)CC(CCCc3ccccc3)C2)n1 (stereo unspecified) | > 100 µM
66 | COc1nc(N)c(N=CC(OC(C)=O)C(OC(C)=O)C(COC(C)=O)OC(C)=O)c(=O)n1C (stereo unspecified) | > 100 µM
67 | C#CCOCC12C=CC(O1)C1C(=O)OCC12 (stereo unspecified) | > 100 µM
68 | Cc1nc(-c2ccc(N=Cc3ccc(N(CCOS(C)(=O)=O)CCOS(C)(=O)=O)cc3C)cc2)cs1 | > 100 µM
69 | Cc1ccc2c(=O)cc(-c3ccc(-c4ccccc4)s3)[nH]c2n1 | > 100 µM
70 | OC1(c2ccccc2)CSC2=Nc3ccccc3C3CCN1N23 (stereo unspecified) | 32 µM

Tested on: RPMI-8226 leukemia
Experiment: DTP human tumour cell line panel, 48 h

Row | Compound | TGI
71 | Nc1nc(Cl)c(N)c(NCC2(CO)CC(CCCc3ccccc3)C2)n1 (stereo unspecified) | > 50.1 µM
72 | COc1nc(N)c(N=CC(OC(C)=O)C(OC(C)=O)C(COC(C)=O)OC(C)=O)c(=O)n1C (stereo unspecified) | > 100 µM
73 | C#CCOCC12C=CC(O1)C1C(=O)OCC12 (stereo unspecified) | > 100 µM
74 | Cc1nc(-c2ccc(N=Cc3ccc(N(CCOS(C)(=O)=O)CCOS(C)(=O)=O)cc3C)cc2)cs1 | > 100 µM
75 | Cc1ccc2c(=O)cc(-c3ccc(-c4ccccc4)s3)[nH]c2n1 | > 100 µM

Tested on: LOX IMVI melanoma
Experiment: DTP human tumour cell line panel, 48 h

Row | Compound | TGI
76 | Nc1nc(Cl)c(N)c(NCC2(CO)CC(CCCc3ccccc3)C2)n1 (stereo unspecified) | 98.7 µM
77 | COc1nc(N)c(N=CC(OC(C)=O)C(OC(C)=O)C(COC(C)=O)OC(C)=O)c(=O)n1C (stereo unspecified) | > 100 µM
78 | C#CCOCC12C=CC(O1)C1C(=O)OCC12 (stereo unspecified) | > 100 µM
79 | Cc1nc(-c2ccc(N=Cc3ccc(N(CCOS(C)(=O)=O)CCOS(C)(=O)=O)cc3C)cc2)cs1 | > 100 µM
80 | Cc1ccc2c(=O)cc(-c3ccc(-c4ccccc4)s3)[nH]c2n1 | > 100 µM
81 | OC1(c2ccccc2)CSC2=Nc3ccccc3C3CCN1N23 (stereo unspecified) | 36.9 µM

Tested on: COLO 205 colon
Experiment: DTP human tumour cell line panel, 48 h

Row | Compound | TGI
82 | Nc1nc(Cl)c(N)c(NCC2(CO)CC(CCCc3ccccc3)C2)n1 (stereo unspecified) | 45.6 µM
83 | COc1nc(N)c(N=CC(OC(C)=O)C(OC(C)=O)C(COC(C)=O)OC(C)=O)c(=O)n1C (stereo unspecified) | > 100 µM
84 | C#CCOCC12C=CC(O1)C1C(=O)OCC12 (stereo unspecified) | > 100 µM
85 | Cc1nc(-c2ccc(N=Cc3ccc(N(CCOS(C)(=O)=O)CCOS(C)(=O)=O)cc3C)cc2)cs1 | > 100 µM
86 | Cc1ccc2c(=O)cc(-c3ccc(-c4ccccc4)s3)[nH]c2n1 | > 100 µM
